Source: ChEMBL document CHEMBL3885881, “DrugMatrix”

Species: Rattus norvegicus
Experiment: DrugMatrix - Regimen: Daily Repeat
Type: toxicity, organism-based, Sprague-Dawley
Set-up: regimen Daily Repeat, gender Male, age 6-8 weeks
Conditions: in vivo, po, 0 mg/kg, route oral GAVAGE, dose level Control, vehicle .5 % CMC; for BASOPHIL / EOSINOPHIL / ERYTHROCYTE COUNT / HEMATOCRIT / HEMOGLOBIN / LEUKOCYTE COUNT / LYMPHOCYTE / MEAN CORPUSCULAR HEMOGLOBIN / MEAN CORPUSCULAR HEMOGLOBIN CONCENTRATION / MEAN CORPUSCULAR VOLUME / MONOCYTE / NEUTROPHIL / PLATELET COUNT: tissue Blood; for ALANINE AMINOTRANSFERASE / ALBUMIN / ALKALINE PHOSPHATASE / ASPARTATE AMINOTRANSFERASE / BLOOD UREA NITROGEN / CHLORIDE / CHOLESTEROL / CREATINE PHOSPHOKINASE / CREATININE / GLUCOSE / PHOSPHORUS / POTASSIUM / SODIUM / TOTAL BILIRUBIN / TOTAL PROTEIN: tissue Plasma

## Clc1ccccc1CN1CCc2sccc2C1 [TICLOPIDINE]
72 h, time 3 day
  BASOPHIL: 0%
  EOSINOPHIL: 0%
  ERYTHROCYTE COUNT: 6.19 x10E6/uL
  HEMATOCRIT: 36.94%
  HEMOGLOBIN: 14.58 G/DL
  LEUKOCYTE COUNT: 11.54 x10E3/uL
  LYMPHOCYTE: 84.8%
  MEAN CORPUSCULAR HEMOGLOBIN: 23.58 pg
  MEAN CORPUSCULAR HEMOGLOBIN CONCENTRATION: 39.44 G/DL
  MEAN CORPUSCULAR VOLUME: 59.76 fL
  MONOCYTE: 1.4%
  NEUTROPHIL: 13.8%
  PLATELET COUNT: 1068.8 x10E3/uL
  ALANINE AMINOTRANSFERASE: 38.17 u/L
  ALBUMIN: 3.88 G/DL
  ALKALINE PHOSPHATASE: 391.33 u/L
  ASPARTATE AMINOTRANSFERASE: 69.83 u/L
  BLOOD UREA NITROGEN: 15 mg/dL
  CHLORIDE: 104.17 MEQ/L
  CHOLESTEROL: 72.17 mg/dL
  CREATINE PHOSPHOKINASE: 174.33 u/L
  CREATININE: 0.58 mg/dL
  GLUCOSE: 192.67 mg/dL
  PHOSPHORUS: 10.52 mg/dL
  POTASSIUM: 6.8 MEQ/L
  SODIUM: 149.67 MEQ/L
  TOTAL BILIRUBIN: 0.78 mg/dL
  TOTAL PROTEIN: 6.28 G/DL
120 h, time 5 day
  BASOPHIL: 0%
  EOSINOPHIL: 0.17%
  ERYTHROCYTE COUNT: 6.72 x10E6/uL
  HEMATOCRIT: 40.02%
  HEMOGLOBIN: 15.83 G/DL
  LEUKOCYTE COUNT: 9.5 x10E3/uL
  LYMPHOCYTE: 87.17%
  MEAN CORPUSCULAR HEMOGLOBIN: 23.57 pg
  MEAN CORPUSCULAR HEMOGLOBIN CONCENTRATION: 39.62 G/DL
  MEAN CORPUSCULAR VOLUME: 59.55 fL
  MONOCYTE: 1.67%
  NEUTROPHIL: 11%
  PLATELET COUNT: 1053.67 x10E3/uL
  ALANINE AMINOTRANSFERASE: 26.33 u/L
  ALBUMIN: 4.02 G/DL
  ALKALINE PHOSPHATASE: 316.67 u/L
  ASPARTATE AMINOTRANSFERASE: 61.33 u/L
  BLOOD UREA NITROGEN: 18.67 mg/dL
  CHLORIDE: 108 MEQ/L
  CHOLESTEROL: 65.17 mg/dL
  CREATINE PHOSPHOKINASE: 161.17 u/L
  CREATININE: 0.75 mg/dL
  GLUCOSE: 177.33 mg/dL
  PHOSPHORUS: 9.72 mg/dL
  POTASSIUM: 6.18 MEQ/L
  SODIUM: 150.5 MEQ/L
  TOTAL BILIRUBIN: 0.68 mg/dL
  TOTAL PROTEIN: 6.55 G/DL
